In patent US20240199977A1, “COMPOSITIONS COMPRISING A META-(C1-C4 ALKOXY) […]” (The Procter & Gamble Company, priority 2022, published 2024):
≈ marks a conversion by molar mass, not a printed value. Like-named read-outs stand apart in the source and are kept apart here.

Key:
[1] = Headspace Method, Air/DPM partition (dynamic headspace GC/MS); type: physicochemical; conditions: for Air/DPM partition coef / Headspace: 30° C.; for Headspace: above DPM solution of 1.1E+07 ng/mL
Protocol: (§1) Perfume headspace data is collected for various materials according to the method provided below.
(§2) The partition coefficients are calculated by determining the amount of PRM in the headspace above a solution with a known concentration using a GC/FID-MS (Agilent 7890 and 5977A MSD) with a thermal desorption unit (Gerstel MPS2) and Dynamic Headspace Sampler (Gerstel DHS). This technique allows for automated headspace collections using the MultiPurposeSampler (MPS). The PRMs of interest are prepared at a known concentration in isopropyl myristate (IPM) or propylene glycol monomethyl ether (DPM), and 1 mL is pipetted in a 20 mL headspace vial.
(§3) DHS Conditions: The sample is tempered in the unit at 30° C. A helium stream at 10 mls/min purges 20 mL of headspace containing the analytes above the sample onto the sorbent tube (TDU) containing 25 mg of TenaxTA 35/60 (Restek cat # 25701).
(§4) TDU conditions: The sorbent tube is desorbed with a program starting at 30° C. solvent vent for 2 min then ramped at 720° C./min to 270 ° C. and held for 8 min. The analytes are refocused on a glass bead liner at -60° C. then desorbed at a rate of 12 ° C./s to 270° C. onto the GC column.
(§5) GC/MS conditions: Agilent 122-5532UI column of 30 m×250 μm×0.25 μm and a flow rate of 1.5 mL/min is utilized. A temperature program of 50° C. to 280° C. with a 2 min hold and a ramp rate of 12° C./min is suitable. Scan or SIM mode MSD parameters with a solvent delay for the DPM are applied to achieve appropriate detection.
(§6) Analytical standards can be obtained from Sigma Aldrich, St. Louis, MO and BioSynth, UK. A stock solution is prepared at approximately 0.5 g/L. The stock solution is then diluted to 4 to 5 concentrations ranging from approximately 0.05 g/L to 0.00005 g/L. These standard solutions are then analyzed by GC/MS. This analysis is performed by using the same TDU desorption and GC/MS conditions described above with a luL liquid injection onto the TDU tube instead of the DHS collection. The amount injected on column and the area responses of the target m/z are utilized to create a calibration plot with a linear fit.
(§7) Quantification of the headspace is performed by the PRM target m/z area response of the perfume component and the linear equation of the calibration plot.
(§8) Perfume headspace data is collected for various materials according to the Headspace 5 Method provided above in the Test Methods section. The Air/Solvent partition coefficients are determined and indexed accordingly (e.g., where the partition coefficient for ethylvanillin is set at 1.00).

[2] = Headspace Method, Air/IPM partition (dynamic headspace GC/MS); type: physicochemical; conditions: for Air/IPM partition coef / Headspace: 30° C.; for Headspace: above IPM solution of about 2.1E+06 ng/mL
Protocol: as §1, §2, §3, §4, §5, §6, §7, §8

physchem = conditions: oil or lipid, thermodynamic from solid

Row | SMILES | Ethylvanillin Indexed Air/DPM partition coefficient [1] | Air/DPM partition coef ([1]; average of three replicates) | Headspace ([1]; average of three replicates) [ng/mL] | Ethylvanillin Indexed Air/IPM partition coefficient [2] | Air/IPM partition coef ([2]; average of two replicates) | Headspace ([2]; average of two replicates) [ng/mL] | solubility (physchem) [mg/mL] | goes into the headspace more than ethylvanillin ([1]; out of DPM) | goes into the headspace more than its structural isomer ethylvanillin ([2]; out of IPM) | Ethylvanillin Indexed Air/DPM partition coefficient ([1]; indexed, ethylvanillin set at 1.00, average of three replicates) | Ethylvanillin Indexed Air/IPM partition coefficient ([2]; indexed, ethylvanillin set at 1.00, average of two replicates)
1 | COc1cc(C=O)ccc1O [Vanillin] | 4.88 | 1.21E−08 ng/mL in air per ng/mL in DPM | 0.1288 | 1.40 | 2.73E−08 ng/mL in air per ng/mL in IPM | 0.0563 |  |  |  |  | 
2 | CCOc1cccc(C=O)c1O [ortho-Ethylvanillin, 2-hydroxy-3-ethoxybenzaldehyde] | 93.7 | 2.31E−07 ng/mL in air per ng/mL in DPM | 2.4678 | 6.17 | 1.21E−07 ng/mL in air per ng/mL in IPM | 0.2521 | 73 (≈ 439 mM) | about 94 X | about 6.2 X |  | 
3 | CCOc1cc(C=O)ccc1O [Ethylvanillin] |  | 2.45E−09 ng/mL in air per ng/mL in DPM | 0.0262 |  | 1.95E−08 ng/mL in air per ng/mL in IPM | 0.0402 | 38 (≈ 229 mM) |  |  | 1.00 | 1.00
